According to ChEMBL document CHEMBL1140725, “Pradefovir: a prodrug that targets adefovir to the liver for the treatment of hepatitis B” (J Med Chem, 2008):

What was measured:
[1] = test system: Liver; assay: Biodistribution in rat liver at 30 mg/kg, po after 24 hrs; type: ADME, organism-based; set-up: dose 30 mg/kg, route oral; conditions: in vivo
[2] = test system: Kidney; assay: Biodistribution in rat kidney at 30 mg/kg, po after 24 hrs; type: ADME, organism-based; set-up: dose 30 mg/kg, route oral; conditions: in vivo
[3] = test system: Rattus norvegicus; assay: Biodistribution in rat small intestine at 30 mg/kg, po after 24 hrs; type: ADME, organism-based; set-up: dose 30 mg/kg, route oral; conditions: in vivo
[4] = test system: Plasma; assay: Biodistribution in rat plasma at 30 mg/kg, po after 24 hrs; type: ADME, organism-based; set-up: dose 30 mg/kg, route oral; conditions: in vivo
[5] = test system: Liver; assay: Selectivity index, ratio of biodistribution in rat liver to kidney at 30 mg/kg, po after 24 hrs; type: organism-based; set-up: dose 30 mg/kg, route oral; conditions: in vivo
[6] = test system: Intestine; assay: Selectivity index, ratio of biodistribution in rat liver to intestine at 30 mg/kg, po after 24 hrs; type: organism-based; set-up: dose 30 mg/kg, route oral; conditions: in vivo
[7] = test system: Liver microsomes; assay: Prodrug activation in Wistar rat liver microsome assessed as formation of adefovir at 250 uM after 5 mins
[8] = test system: Hepatocyte; assay: Prodrug activation in intracellular rat hepatocytes assessed as formation of adefovir diphosphate after 2 hrs; type: cell-based
[9] = test system: Rattus norvegicus; assay: Prodrug activation in Sprague-Dawley rat liver hepatocytes assessed as formation of adefovir diphosphate at 30 mg/kg, po after 8 hrs; type: organism-based, Hepatocyte; set-up: dose 30 mg/kg, route oral
[10] = test system: Rattus norvegicus; assay: Cmax in rat liver at 30 mg/kg, po; type: ADME, organism-based; set-up: dose 30 mg/kg, route oral; conditions: in vivo

Q: CC(C)(C)C(=O)OCOP(=O)(COCCn1cnc2c(N)ncnc21)OCOC(=O)C(C)(C)C [ADEFOVIR DIPIVOXIL] was tested. Which Drug uptake [1] did it give?
A: 284 nmol·h/g

Q: And the Drug uptake [2]?
A: 742 nmol·h/g

Q: And the Drug uptake [3]?
A: 3206 nmol·h/g

Q: And the Drug uptake [4]?
A: 34 nmol·h/g

Q: And the Selectivity index [5]?
A: 0.4

Q: And the Selectivity index [6]?
A: 0.08

Q: Nc1ncnc2c1ncn2CCOCP1(=O)OCCC(c2cccc(F)c2F)O1 (centres undefined) was tested. Which Activity [7] did it give?
A: 6.3 nmol/min/mg

Q: Which Activity [7] does the source give for Nc1ncnc2c1ncn2CCOCP1(=O)OCCC(c2cc(Cl)cc(Cl)c2)O1 (centres undefined) here?
A: 1.9 nmol/min/mg

Q: What about the Activity [8] of the same molecule?
A: 64.4 nmol·h/g

Q: And the Activity [9]?
A: 2 nmol·h/g

Q: Which results are given for Nc1ncnc2c1ncn2CCOCP1(=O)OCCC(c2ccoc2)O1 (centres undefined)?
A: Activity [7]: 4 nmol/min/mg; Activity [8]: 0 nmol·h/g

Q: Which Activity [7] does the source give for Nc1ncnc2c1ncn2CCOCP1(=O)OCCC(c2c(F)cccc2F)O1 (centres undefined) here?
A: 1.5 nmol/min/mg

Q: Which Activity [7] does the source give for COc1ccc(C2CCOP(=O)(COCCn3cnc4c(N)ncnc43)O2)cc1Br (centres undefined) here?
A: 1.1 nmol/min/mg

Q: What about the Activity [8] of the same molecule?
A: < 0.5 nmol·h/g

Q: For CS(=O)(=O)O.Nc1ncnc2c1ncn2CCOCP1(=O)OCCC(c2cccc(Cl)c2)O1 (centres undefined), which Cmax [10] is on record?
A: 19.6 nmol/g

Q: With Nc1ncnc2c1ncn2CCOCP1(=O)OCCC(c2ccsc2)O1 (centres undefined) as the molecule, how does the Activity [7] read?
A: 0.5 nmol/min/mg

Q: And the Activity [8]?
A: 0 nmol·h/g

Q: How did the Activity [7] turn out when Nc1ncnc2c1ncn2CCOCP1(=O)OCCC(c2ccc(Cl)cc2Cl)O1 (centres undefined) was run?
A: 2.5 nmol/min/mg

Q: And the Activity [8]?
A: 9.8 nmol·h/g

Q: How did the Activity [7] turn out when Nc1ncnc2c1ncn2CCOCP1(=O)OCCC(c2ccccc2F)O1 (centres undefined) was run?
A: < 1 nmol/min/mg

Q: For Nc1ncnc2c1ncn2CCOCP1(=O)OCCC(c2cccc(Cl)c2)O1 (trans isomer), which Activity [7] is on record?
A: < 0.01 nmol/min/mg

Q: What does the source list for CC(C)(C)c1ccc(C2CCOP(=O)(COCCn3cnc4c(N)ncnc43)O2)cc1 (centres undefined)?
A: Activity [7]: 0.5 nmol/min/mg; Activity [8]: 0 nmol·h/g

Q: Which results are given for Nc1ncnc2c1ncn2CCOCP1(=O)OCCC(c2cccnc2)O1 (centres undefined)?
A: Activity [7]: 2.9 nmol/min/mg; Activity [8]: 26.7 nmol·h/g

Q: What does the source list for COc1ccc(Br)c(C2CCOP(=O)(COCCn3cnc4c(N)ncnc43)O2)c1 (centres undefined)?
A: Activity [7]: 4 nmol/min/mg; Activity [8]: < 0.5 nmol·h/g

Q: How did the Activity [7] turn out when Nc1ncnc2c1ncn2CCOCP1(=O)OCCC(c2cc(F)ccc2F)O1 (centres undefined) was run?
A: 2.3 nmol/min/mg

Q: How did the Activity [7] turn out when Nc1ncnc2c1ncn2CCOC[P@]1(=O)OCC[C@H](c2cccc(Cl)c2)O1 was run?
A: 0.193 nmol/min/mg

Q: And the Cmax [10]?
A: 5.4 nmol/g

Q: What does the source list for Nc1ncnc2c1ncn2CCOCP1(=O)OCCC(c2cccc(Br)c2)O1 (centres undefined)?
A: Activity [7]: 1.9 nmol/min/mg; Activity [8]: 70.3 nmol·h/g; Activity [9]: 2.2 nmol·h/g

Q: How did the Activity [7] turn out when Nc1ncnc2c1ncn2CCOCP1(=O)OCCC(c2c(Cl)cccc2Cl)O1 (centres undefined) was run?
A: < 1 nmol/min/mg

Q: Which results are given for Nc1ncnc2c1ncn2CCOCP1(=O)OCCC(c2cccc(Cl)c2)O1 (stereo in doubt; 3h)?
A: Activity [7]: 10.9 nmol/min/mg; Activity [8]: 109.3 nmol·h/g; Activity [9]: 6.6 nmol·h/g

Q: Nc1ncnc2c1ncn2CCOCP1(=O)OCCC(c2cccc(F)c2)O1 (centres undefined) was tested. Which Activity [7] did it give?
A: < 1 nmol/min/mg

Q: How did the Activity [7] turn out when Cc1cc(C)cc(C2CCOP(=O)(COCCn3cnc4c(N)ncnc43)O2)c1 (centres undefined) was run?
A: 1.6 nmol/min/mg

Q: What about the Activity [8] of the same molecule?
A: 40.7 nmol·h/g

Q: COc1ccc(Br)cc1C1CCOP(=O)(COCCn2cnc3c(N)ncnc32)O1 (centres undefined) was tested. Which Activity [7] did it give?
A: < 1 nmol/min/mg

Q: How did the Activity [7] turn out when Nc1ncnc2c1ncn2CCOCP1(=O)OCCC(c2cccc(Cl)c2Cl)O1 (centres undefined) was run?
A: < 4.5 nmol/min/mg

Q: Which results are given for Nc1ncnc2c1ncn2CCOCP1(=O)OCCC(c2ccc(Cl)c(Cl)c2)O1 (centres undefined)?
A: Activity [7]: 1.5 nmol/min/mg; Activity [8]: 6.2 nmol·h/g

Q: What does the source list for Nc1ncnc2c1ncn2CCOCP1(=O)OCCC(c2ccncc2)O1 (centres undefined)?
A: Activity [7]: 4.5 nmol/min/mg; Activity [8]: 106.2 nmol·h/g; Activity [9]: 1.2 nmol·h/g

Q: How did the Activity [7] turn out when Nc1ncnc2c1ncn2CCOCP1(=O)OCCC(c2ccccc2Br)O1 (centres undefined) was run?
A: 3.5 nmol/min/mg

Q: And the Activity [8]?
A: 43.1 nmol·h/g

Q: What about the Activity [9] of the same molecule?
A: 7.1 nmol·h/g

Q: With Nc1ncnc2c1ncn2CCOCP1(=O)OCCC(c2ccccc2)O1 (centres undefined) as the molecule, how does the Activity [7] read?
A: 2.9 nmol/min/mg

Q: And the Activity [8]?
A: 149.1 nmol·h/g

Q: What about the Activity [9] of the same molecule?
A: 0.6 nmol·h/g

Q: For Nc1ncnc2c1ncn2CCOCP1(=O)OCCC(c2ccccc2Cl)O1 (centres undefined), which Activity [7] is on record?
A: 6.2 nmol/min/mg

Q: What does the source list for Nc1ncnc2c1ncn2CCOC[P@@]1(=O)OCC[C@@H](c2cccc(Cl)c2)O1 [PRADEFOVIR]?
A: Activity [7]: 0.51 nmol/min/mg; Cmax [10]: 12.2 nmol/g

Q: Nc1ncnc2c1ncn2CCOCP1(=O)OCCC(c2ccc(F)cc2F)O1 (centres undefined) was tested. Which Activity [7] did it give?
A: 2.5 nmol/min/mg

Q: For Nc1ncnc2c1ncn2CCOCP1(=O)OCCC(c2cc(F)cc(F)c2)O1 (centres undefined), which Activity [7] is on record?
A: 1.5 nmol/min/mg

Q: And the Activity [8]?
A: 61.9 nmol·h/g

Q: And the Activity [9]?
A: 2.2 nmol·h/g

Q: How did the Activity [7] turn out when Nc1ncnc2c1ncn2CCOCP1(=O)OCCC(c2cccc(Cl)c2)O1 (cis isomer) was run?
A: 0.421 nmol/min/mg

Q: What about the Drug uptake [1] of the same molecule?
A: 884 nmol·h/g

Q: What about the Drug uptake [2] of the same molecule?
A: 196 nmol·h/g

Q: And the Drug uptake [3]?
A: 118 nmol·h/g

Q: What about the Drug uptake [4] of the same molecule?
A: 55 nmol·h/g

Q: And the Selectivity index [5]?
A: 4.5

Q: What about the Selectivity index [6] of the same molecule?
A: 7.5

Q: And the Cmax [10]?
A: 8 nmol/g
